# Laboratory results: patent publication US20250101063A1, “POLYPEPTIDE COMPOUND AND USE THEREOF IN TREATMENT OF ENTERITIS” (Sichuan Gooddoctor Panxi Pharmaceutical Co., Ltd., priority 2022, published 2025)
# Where no end group is shown, it is not given here. [ ]: non-standard residue; d: D form.
# Tested on: zebrafish model of intestinal mucosal injury
# Test: Efficacy in relieving colitis: intestinal lumen area in TNBS-treated zebrafish
# Assay type: in vivo
# Design: key to Activity in relieving intestinal lumen dilatation: * p < 0.05; ** p < 0.01; *** p < 0.001; “−“ indicates absence of activity; “+” indicates some relief of intestinal lumen dilatation; “#” indicates that all the zebrafishes died in the experiment; “&” indicates that 13 zebrafishes died in the experiment
# Conditions: 15.0 μg/mL (positive control), 2 days after TNBS, n = 10
# Description: Experimental animals: Wild-type AB strain zebrafishes, bred by natural pair mating. Zebrafishes aged 3 days post fertilization (3 dpf). Zebrafishes were kept in fish farming water at 28° C. (water quality: 200 mg of instant sea salt in each 1L of reverse osmosis water, with the conductivity of 450-550 μS/cm; pH of 6.5-8.5; and hardness of 50-100 mg/L CaCO3), the experimental animal use license number is: SYXK (Zhe) 2012-0171, and the breeding management met the requirements of the international AAALAC certification (certification number: 001458).
# (1) Grouping: Polypeptide group: prepared into a stock solution of 20.0 mg/mL with ultrapure water and stored at −20° C.
# Positive control group: prednisone, as white powder, with batch number C10016501, Shanghai Macklin Biochemical Technology Co., Ltd., stored at 4° C.; prepared into a 15.0 mg/mL stock solution with DMSO, and stored in aliquots at −20° C.
# Normal control group and model control group.
# (2) Experimental method: 3 dpf wild-type AB strain zebrafishes were randomly selected and placed in a 6-well plate, with 30 zebrafishes in each well (experimental group). Except for the normal control group, all other experimental groups were given TNBS in water to establish the zebrafish model of intestinal mucosal injury. After 2 days of treatment at 28° C., TNBS was removed, and polypeptide compound in water (at concentrations shown in Table 4) was given respectively, and for the positive control, prednisone was 15.0 μg/mL. A normal control group (healthy group) and a model control group (intestinal mucosal injury group) were set up at the same time. The capacity of each well (experimental group) was 3 mL. After 2 days of treatment at 28° C., 10 zebrafishes were randomly selected from each experimental group and photographed under a dissecting microscope. NIS-Elements D 3.20 advanced image processing software was used to analyze and collect data, and the intestinal lumen area of the zebrafish was analyzed. The statistical analysis results of this indicator were used to evaluate the efficacy of the samples in relieving colitis. The statistics results were expressed as mean±SE. SPSS26.0 software was used for statistical analysis, and p<0.05 indicates statistically significant difference.
# The concentration gradient of the test substances set in this experimental system was 250 μg/mL, 500 μg/mL, and 1000 μg/mL. […] When the concentration of the test substance was further increased for intervention, the death phenomenon of zebrafishes was found in the group; therefore, in the subsequent rounds of activity evaluation, each test polypeptide compound was uniformly administered at 1000 μg/mL for intervention.
row,Compound,"Intestinal lumen area (pixels, mean ± SE)"
1,"C[C@]12C=CC(=O)C=C1CC[C@@H]1[C@@H]2C(=O)C[C@@]2(C)[C@H]1CC[C@]2(O)C(=O)CO [Prednisone, prednisone, reference compound]",34929 ± 1913 pixels

# Same assay, conditions: 250 μg/mL in water, 2 days after TNBS, n = 10
row,Compound,"Intestinal lumen area (pixels, mean ± SE)"
1,Arg-Lys-Val-Ala (RKVA; printed: Arg-Lys-Val-Ala) [Compound 15],40719 ± 4647 pixels

# Same assay, conditions: 500 μg/mL in water, 2 days after TNBS, n = 10
row,Compound,"Intestinal lumen area (pixels, mean ± SE)"
1,Arg-Lys-Val-Ala (RKVA; printed: Arg-Lys-Val-Ala) [Compound 15],31319 ± 5274 pixels

# Same assay, conditions: 1000 μg/mL in water, 2 days after TNBS, n = 10
row,Compound,"Intestinal lumen area (pixels, mean ± SE)"
1,Arg-Lys-Val-Ala (RKVA; printed: Arg-Lys-Val-Ala) [Compound 15],30268 ± 2437 pixels

# Same assay, conditions: 1000 μg/mL; significance vs model control group of the same batch
row,Compound,Activity in relieving intestinal lumen dilatation
1,AEPVPQAKPRKVAAQ [Compound 19],+
2,APVPQAK [Compound 46],+
3,Ala-Lys-Pro-Arg (AKPR; printed: Ala-Lys-Pro-Arg) [Compound 11],+
4,Arg-Lys-Val-Ala (RKVA; printed: Arg-Lys-Val-Ala) [Compound 15],* (* p < 0.05)
5,D-Glu-Pro-Val-Pro-Gln-Ala-Lys ([dE]PVPQAK; also: acetate salt) [Compound 78],+
6,DPVPQAK [Compound 49],* (* p < 0.05)
7,EAVPQAK [Compound 53],* (* p < 0.05)
8,EGVPQAK [Compound 76],+
9,EPAPQAK [Compound 52],+
10,EPVAQAK [Compound 54],*** (*** p < 0.001)
11,EPVGQAK [Compound 77],−
12,EPVPAAK [Compound 47],+
13,EPVPEAK [Compound 55],* (* p < 0.05)
14,EPVPQAA [Compound 48],** (** p < 0.01)
15,EPVPQAKP [Compound 58],+
16,EPVPQAKPR [Compound 57],** (** p < 0.01)
17,EPVPQAKPRK [Compound 38],* (* p < 0.05)
18,EPVPQAKPRKVA [Compound 51],* (* p < 0.05)
19,EPVPQAKVPY [Compound 102],+

row,Compound,Activity in relieving intestinal lumen dilatation
1,EPVPQAR [Compound 45],#
2,EPVPQA[dK] [Compound 84],+
3,EPVPQ[dA]K [Compound 83],* (* p < 0.05)
4,EPVP[dQ]AK [Compound 82],+
5,EPV[dP]QAK [Compound 81],+
6,EP[dV]PQAK [Compound 80],+
7,E[dP]VPQAK [Compound 79],+
8,GPETAFLREPVPQAK [Compound 96],*** (*** p < 0.001)
9,GPETAFLRKEPVPQAKPRKVAAQ [Compound 95],** (** p < 0.01)
10,Gln-Ala-Lys-Pro (QAKP; printed: Gln-Ala-Lys-Pro) [Compound 17],+
11,Glu-Pro-Val-Pro (EPVP; printed: Glu-Pro-Val-Pro) [Compound 9],** (** p < 0.01)
12,Glu-Pro-Val-Pro-Gln (EPVPQ; printed: Glu-Pro-Val-Pro-Gln) [Compound 86],* (* p < 0.05)
13,KAPVPQAKPRKVAAQ [Compound 20],&
14,KEAVPQAKPRKVAAQ [Compound 21],+
15,KEGVGQAKGRKVAAQ [Compound 35],−
16,KEGVGQAKPRKVAAQ [Compound 37],+
17,KEGVPQAKGRKVAAQ [Compound 36],+
18,KEGVPQAKPRKVAAQ [Compound 31],* (* p < 0.05)

# Same assay, conditions: 250, 500, 1000 μg/mL; Table 4
row,Compound,Intestinal lumen area compared with the model control group (in words)
1,Arg-Lys-Val-Ala (RKVA; printed: Arg-Lys-Val-Ala) [Compound 15],significant statistical differences compared with the model control group
